Reference: article PMC9925730, “Controlled sequential in situ self-assembly and disassembly of a fluorogenic cisplatin prodrug for cancer theranostics” (Nature Communications, 2023)
Several values for one entry are separate records, joined by “and”; a condition that tells them apart may be missing. Identical values can stand only once.

Legend:
ALP [1] = assay: Dephosphorylated efficacy of P-CyPt towards varying concentrations of ALP (NIR fluorescence); type: biochemical; settings: for Normalized FL intensity: ALP 0 U/L; for normalized signal over time (section 'Supplementary Fig. 2c'), mean of 3: 250 μM
ALP [2] = biological target: T1, ALP (Bos taurus, UniProt P19111); assay: Enzyme kinetics of P-CyPt towards ALP (Lineweaver-Burk); type: biochemical; settings: ALP (20 U/L)
T1 construct: Alkaline phosphatase from bovine; purchased Sigma-Aldrich; host or cells: bovine intestinal mucosa (tissue-derived)
T1 sequence (P19111 20-533): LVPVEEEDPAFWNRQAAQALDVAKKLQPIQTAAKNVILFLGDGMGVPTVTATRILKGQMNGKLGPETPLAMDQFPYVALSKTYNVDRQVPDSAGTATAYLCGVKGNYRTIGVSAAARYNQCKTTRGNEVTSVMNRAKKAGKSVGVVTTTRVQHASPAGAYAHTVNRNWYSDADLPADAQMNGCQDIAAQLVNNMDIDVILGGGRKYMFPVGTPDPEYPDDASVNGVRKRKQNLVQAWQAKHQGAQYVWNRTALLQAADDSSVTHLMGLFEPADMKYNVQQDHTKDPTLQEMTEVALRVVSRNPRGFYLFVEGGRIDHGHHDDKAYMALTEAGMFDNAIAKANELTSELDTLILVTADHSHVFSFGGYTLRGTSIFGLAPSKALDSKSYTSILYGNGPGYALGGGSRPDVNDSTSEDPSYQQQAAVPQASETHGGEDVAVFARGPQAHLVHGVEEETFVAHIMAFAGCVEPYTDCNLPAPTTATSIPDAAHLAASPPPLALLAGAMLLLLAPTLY

ALP [3] = assay: as above; type: biochemical; settings: Supplementary Fig. 5b; for 1/v, mean: mean of 3 samples
s.c. HeLa tumors = assay: NIR FL imaging of s.c. HeLa tumors in vivo; set-up: species or system mice; settings: i.v. 100 μM, 200 μL
Protocol: (100 μM, in 200 μL saline). Whole body FL images of mice prior to (pre) and at 1 h, 2 h, 4 h, 8 h post injection of P-CyPt or […] acquired on the IVIS Lumina XR III imaging system, using a 660 nm excitation filter and a 750 ± 50 nm emission filter. Each experiment was conducted in three mice. The FL intensities were quantified by the region of interest (ROI) measurement using Living Image Software (4.5.2, PerkinElmer, MA, U.S.A). […] (500 μM, in 200 μL saline). The PA images of the s.c. HeLa tumors in mice prior to (pre), and at 1, 2, 4 h post injection were captured on the Vevo 2100 LAZR system (FUJIFILM VisualSonics), with excitation at 700 and 750 nm. The PA intensities were quantified by the equipped software.

CC1(C)C(/C=C/C2=C3Oc4cc(OP(=O)(O)O)c(Cl)cc4C=C3CCC2)=[N+](CCCNC(=O)[C@@H](Cc2ccccc2)NC(=O)[C@@H](Cc2ccccc2)NC(=O)CCC(=O)[O][Pt]([NH2])([NH2])([OH])([Cl])[Cl])c2ccccc21 [P-CyPt]
Normalized FL intensity (ALP [1]; 8 min, mean of 3 samples): 1.032
Normalized FL intensity (ALP [1]; 8 min, single samples): 1.087 and 1.013 and 0.9957
Normalized FL intensity (ALP [1]; 10 min, mean of 3 samples): 1.035
Normalized FL intensity (ALP [1]; 10 min, single samples): 1.083 and 1.017 and 1.004
Normalized FL intensity (ALP [1]; 12 min, mean of 3 samples): 1.029
Normalized FL intensity (ALP [1]; 12 min, single samples): 1.083 and 1.004 and 1
Normalized FL intensity (ALP [1]; 14 min, mean of 3 samples): 1.014
Normalized FL intensity (ALP [1]; 14 min, single samples): 1.065 and 0.9957 and 0.9826
Normalized FL intensity (ALP [1]; 16 min, mean of 3 samples): 1.013
Normalized FL intensity (ALP [1]; 16 min, single samples): 1.057 and 0.9957 and 0.987
Normalized FL intensity (ALP [1]; 18 min, mean of 3 samples): 1.0087
Normalized FL intensity (ALP [1]; 18 min, single samples): 1.048 and 1 and 0.9783
Normalized FL intensity (ALP [1]; 20 min, mean of 3 samples): 1.016
Normalized FL intensity (ALP [1]; 20 min, single samples): 1.039 and 0.9913 and 1.017
Normalized FL intensity (ALP [1]; 22 min, mean of 3 samples): 1.023
Normalized FL intensity (ALP [1]; 22 min, single samples): 1.104 and 0.9913 and 0.9739
Normalized FL intensity (ALP [1]; 24 min, mean of 3 samples): 1
Normalized FL intensity (ALP [1]; 24 min, single samples): 1.039 and 0.9957 and 0.9652
Normalized FL intensity (ALP [1]; 26 min, mean of 3 samples): 1.0029
Normalized FL intensity (ALP [1]; 26 min, single samples): 1.035 and 1.004 and 0.9696
Normalized FL intensity (ALP [1]; 28 min, mean of 3 samples): 1.014
Normalized FL intensity (ALP [1]; 28 min, single samples): 1.026 and 0.9913
Normalized FL intensity (ALP [1]; 30 min, mean of 3 samples): 1.00E+00
Normalized FL intensity (ALP [1]; 30 min, single samples): 1.04E+00 and 9.91E-01 and 0.9783
normalized signal over time (section 'Supplementary Fig. 2c'), mean of 3 (ALP [1]; time 200 min): 0.9941
normalized signal over time (section 'Supplementary Fig. 2c'), mean of 3 (ALP [1]; time 220 min): 0.9946
normalized signal over time (section 'Supplementary Fig. 2c'), mean of 3 (ALP [1]; time 240 min): 0.9956
normalized signal over time (section 'Supplementary Fig. 2c'), mean of 3 (ALP [1]; time 300 min): 0.9969
normalized signal over time (section 'Supplementary Fig. 2c'), mean of 3 (ALP [1]; time 340 min): 0.9978
normalized signal over time (section 'Supplementary Fig. 2c'), mean of 3 (ALP [1]; time 360 min): 0.9982
normalized signal over time (section 'Supplementary Fig. 2c'), mean of 3 (ALP [1]; time 380 min): 0.998
normalized signal over time (section 'Supplementary Fig. 2c'), mean of 3 (ALP [1]; time 400 min): 0.9983
normalized signal over time (section 'Supplementary Fig. 2c'), mean of 3 (ALP [1]; time 420 min): 0.9984
normalized signal over time (section 'Supplementary Fig. 2c'), mean of 3 (ALP [1]; time 460 min): 0.9985
normalized signal over time (section 'Supplementary Fig. 2c'), mean of 3 (ALP [1]; time 480 min): 0.9989
normalized signal over time (section 'Supplementary Fig. 2c'), mean of 3 (ALP [1]; time 500 min): 0.9986
normalized signal over time (section 'Supplementary Fig. 2c'), mean of 3 (ALP [1]; time 520 min): 0.9984
normalized signal over time (section 'Supplementary Fig. 2c'), mean of 3 (ALP [1]; time 540 min): 0.9984
normalized signal over time (section 'Supplementary Fig. 2c'), mean of 3 (ALP [1]; time 560 min): 0.9984
normalized signal over time (section 'Supplementary Fig. 2c'), mean of 3 (ALP [1]; time 580 min): 0.9984
normalized signal over time (section 'Supplementary Fig. 2c'), mean of 3 (ALP [1]; time 600 min): 0.9984
Vmax (ALP [2]): 0.55 µM/min
Km (ALP [2]; P-CyPt 0.5-5.0 μM): 14 µM
1/v, single samples (sample-1 to sample-3) (ALP [3]; 1/S [μM] 0.2): 7.131 min/µM and 6.758 min/µM and 6.78 min/µM
1/v, mean (ALP [3]; 1/S [μM] 0.2): 6.889 min/µM
1/v, single samples (sample-1 to sample-3) (ALP [3]; 1/S [μM] 0.25): 8.023 min/µM and 8.58 min/µM and 6.977 min/µM
1/v, mean (ALP [3]; 1/S [μM] 0.25): 7.860 min/µM
1/v, single samples (sample-1 to sample-3) (ALP [3]; 1/S [μM] 0.333333): 10.0959 min/µM and 10.7285 min/µM and 10.3072 min/µM
1/v, mean (ALP [3]; 1/S [μM] 0.333333): 10.377 min/µM
1/v, single samples (sample-1 to sample-3) (ALP [3]; 1/S [μM] 0.5): 12.1342 min/µM and 13.921 min/µM and 15.7076 min/µM
1/v, mean (ALP [3]; 1/S [μM] 0.5): 13.921 min/µM
1/v, single samples (sample-1 to sample-3) (ALP [3]; 1/S [μM] 1): 22.8038 min/µM and 25.6597 min/µM and 28.5158 min/µM
1/v, mean (ALP [3]; 1/S [μM] 1): 25.660 min/µM
1/v, single samples (sample-1 to sample-3) (ALP [3]; 1/S [μM] 2): 49.1562 min/µM and 54.4739 min/µM and 57.4911 min/µM
1/v, mean (ALP [3]; 1/S [μM] 2): 53.707 min/µM
quantified FL intensity of HeLa tumors (Fig. 4c) (s.c. HeLa tumors; 1 h): 1130000000
quantified FL intensity of HeLa tumors (Fig. 4c) (s.c. HeLa tumors; 2 h): 1040000000
quantified FL intensity of HeLa tumors (Fig. 4c) (s.c. HeLa tumors; 4 h): 886000000
